In ChEMBL document CHEMBL1142579, “Antineoplastic agents. 527. Synthesis of 7-deoxynarcistatin, 7-deoxy-trans-dihydronarcistatin, and trans-dihydronarcistatin 1(1)” (J Nat Prod, 2005):
≈ marks a conversion by molar mass, not a printed value.

Assays:
P388 = assay: Cytotoxicity against mouse P388 cells; assay type: functional; conditions: read-out: ED50 (the source's name)
KM-20L2 = assay: Cytotoxicity against human KM20L2 cells; assay type: functional
MCF7 = assay: Cytotoxicity against human MCF7 cells; assay type: functional
[1] = Aqueous solubility at 25 degC; assay type: physicochemical; conditions: water
SF-268 = assay: Cytotoxicity against human SF-268 cells; assay type: functional
BXPC-3 = assay: Cytotoxicity against human […] cells; assay type: functional
DU-145 = assay: Cytotoxicity against human DU145 cells; assay type: functional
NCI-H460 = assay: Cytotoxicity against human NCI-H460 cells; assay type: functional

SMILES	EC50 (P388) [µg/mL]	GI50 (KM-20L2) [µg/mL]	GI50 (MCF7) [µg/mL]	solubility [1] [µg/mL]	GI50 (SF-268) [µg/mL]	GI50 (BXPC-3) [µg/mL]	GI50 (DU-145) [µg/mL]	GI50 (NCI-H460) [µg/mL]
O=C1N[C@H]2[C@H](O)[C@H](O)[C@@H](O)C[C@@H]2c2cc3c(cc21)OCO3	0.029 (≈ 0.0989 µM)	0.051 (≈ 0.174 µM)	0.034 (≈ 0.116 µM)	< 1000	0.059 (≈ 0.201 µM)	0.046 (≈ 0.157 µM)	0.04 (≈ 0.136 µM)	0.043 (≈ 0.147 µM)
O=C1N[C@H]2[C@H](O)[C@H](O)[C@@H](O)C[C@@H]2c2cc3c(c(O)c21)OCO3	0.0024 (≈ 0.00776 µM)	0.015 (≈ 0.0485 µM)	0.0053 (≈ 0.0171 µM)	< 1000	0.02 (≈ 0.0647 µM)	0.012 (≈ 0.0388 µM)	0.0066 (≈ 0.0213 µM)	0.0092 (≈ 0.0297 µM)
O=C1N[C@@H]2C(=C[C@H](O)[C@@H](O)[C@H]2O)c2cc3c(cc21)OCO3	0.019 (≈ 0.0652 µM)	0.084 (≈ 0.288 µM)	0.046 (≈ 0.158 µM)	< 1000	0.12 (≈ 0.412 µM)	0.07 (≈ 0.24 µM)	0.051 (≈ 0.175 µM)	0.053 (≈ 0.182 µM)
O=C1N[C@H]2[C@@H]3OP(=O)([O-])O[C@@H]3[C@@H](O)C[C@@H]2c2cc3c(c(O)c21)OCO3.[Na+]	0.88	9.6	4.6	> 10000	8.8	5.6	5.2	7.8
O=C1N[C@H]2[C@@H]3OP(=O)([O-])O[C@@H]3[C@@H](O)C[C@@H]2c2cc3c(cc21)OCO3.[K+]	1.7	> 1	> 1	> 5000	> 1	> 1	> 1	> 1
O=C1N[C@H]2[C@@H]3OP(=O)([O-])O[C@@H]3[C@@H](O)C[C@@H]2c2cc3c(cc21)OCO3.[Na+]	1.6	> 10	7.2	> 10000	> 10	> 10	> 10	> 10
O=C1N[C@H]2[C@@H]3OP(=O)([O-])O[C@@H]3[C@@H](O)C[C@@H]2c2cc3c(cc21)OCO3.[Li+]	0.39	> 1	> 1	> 5000	> 1	> 1	> 1	> 1
O=C1N[C@@H]2C(=C[C@H](O)[C@H]3OP(=O)([O-])O[C@H]32)c2cc3c(cc21)OCO3.[Na+]	1.7	5.6	4	> 190000	6.3	5.3	3.9	4.7
O=C1N[C@@H]2C(=C[C@H](O)[C@H]3OP(=O)([O-])O[C@H]32)c2cc3c(cc21)OCO3.[Li+]	0.42	> 1	> 1	> 10000	> 1	> 1	> 1	> 1
O=C1N[C@H]2[C@@H]3OP(=O)([O-])O[C@@H]3[C@@H](O)C[C@@H]2c2cc3c(c(O)c21)OCO3.[K+]	0.35	> 1	0.64	> 1000	> 1	> 1	0.54	> 1
O=C1N[C@H]2[C@@H]3OP(=O)([O-])O[C@@H]3[C@@H](O)C[C@@H]2c2cc3c(c(O)c21)OCO3.[Li+]	0.26	> 1	> 1	> 1000	> 1	> 1	> 1	> 1
O=C1N[C@@H]2C(=C[C@H](O)[C@H]3OP(=O)([O-])O[C@H]32)c2cc3c(cc21)OCO3.[K+]	1.4	> 1	> 1	> 10000	> 1	> 1	> 1	> 1
